Experiments:
[1] = test system: mouse colon cancer cell line CT26; assay: Anti-tumor activity of cisplatin in the CT26 colon cancer-bearing mouse model; format: in vivo; settings: cisplatin alone; CT26 s.c. 3×10^5 per mouse
Method: To confirm whether administration of the Magnolia officinalis extract interfered with the anti-tumor activity of cisplatin, a mouse colon cancer cell line CT26 (Korean Cell Line Bank, 80009; Seoul, Korea) was injected subcutaneously at 3×10^5 per mouse to fabricate a colon cancer-bearing mouse model, and then treated with cisplatin or cisplatin+Magnolia officinalis extract (200 mg/kg), and the size (volume) and weight of tumor were measured every 3 days.

[2] = test system: cisplatin-induced sarcopenia mouse model; assay: Grip strength (forelimb and all limbs) by digital force gauge; format: in vivo, mice (C57BL/6); settings: M.C 100 and 200 mg/kg; magnolol 10 mg/kg i.p.
Method: To determine the effect of the Magnolia officinalis extract on cisplatin-induced grip strength reduction, muscle strength of all limbs and muscle strength of forelimb were measured using a digital force gauge (DS2-5N; IMADA Inc., Northbrook, IL, USA). The muscle strength was measured by pulling the mouse's tail downward 5times and recording the peak tension when the mouse released its foot, and repeated 3 times at 10-minute intervals, and the average of 5 values was used for calculation.

[3] = test system: cisplatin-induced sarcopenia mouse model; assay: Leg weight and tibialis anterior (TA) muscle mass on day 42, cisplatin-induced skeletal muscle wasting; format: in vivo, mice (C57BL/6); settings: vs cisplatin group
Method: In order to confirm an effect of a Magnolia officinalis extract on cisplatin-induced skeletal muscle wasting, the leg weight and tibialis anterior (TA) muscle mass of each group were measured on day 42 of the experiment.

[4] = test system: cisplatin-induced sarcopenia mouse model
Method: Specifically, mice (C57BL/6, 7 to 8 weeks old) (Jackson Laboratories, Raon Bio, Gyeonggi) were randomly caged and raised in a regulated environment with free access to food and water with a 12-hour light/dark cycle, and then on days 1 to 5 and days 26 to 30, cisplatin (Sigma-Aldrich, P4394; St. Louis, MO, USA) (2.5 mg/kg) dissolved at 1 mg/mL in physiological saline was injected intraperitoneally once daily (sarcopenia mouse model), M.C (50, 100 and 200 mg/kg) were administered orally every 3 days (total of 12 times).

[5] = test system: cells expressing both CD68 and IGF-1; assay: Immunohistochemistry of CD68 and IGF-1 in TA muscle sections; format: in vivo, mice (C57BL/6); settings: per image area
Method: It was confirmed whether […], which shifted the polarization of a macrophage phenotype from M2a to M2c (macrophages involved in extracellular matrix remodeling and muscle healing), and the number of macrophages were affected in skeletal muscle by administration of a Magnolia officinalis extract. Specifically, the TA muscle tissue sections of Example 4-3 were incubated overnight with a primary antibody, rat anti-mouse CD68 antibody (1:250; MCA1957GA; Bio-Rad, Contra Costa County, CA, USA) and rabbit anti-mouse IGF-1 antibody (1:500; 40657; Abcam, Cambridge, UK), and then incubated for 30 minutes with a secondary antibody, Alexa Fluor 488-conjugated goat anti-rat immunoglobulin IgG (A11006; Invitrogen, Carls-bad, CA, USA) and Alexa Fluor 594-conjugated goat anti-rabbit IgG (A32740; Invitrogen, Carlsbad, CA, USA). Thereafter, the sections were mounted using mounting media containing 4′,6-diamidino-2-phenylindole (DAPI) (H-1200, Vector, Torrance, CA, USA), and then imaged under a confocalator microscope (FV10C-PSU; Olympus Corporation, Tokyo, Japan). In the captured images, the numbers of IGF-I (red), CD68 (macrophage) (green), and DAPI (blue) positive cells per image area were measured in at least five random fields.

Row | SMILES | tumor growth (size and weight) [1] | pulling force power (grip strength) compared to the cisplatin administered group [2] | TA muscle mass reduction induced by cisplatin [3] | leg weight reduction induced by cisplatin [3] | cisplatin-induced rapid weight loss (body weight, A of FIG. 2) ([4]; M.C 50, 100 and 200 mg/kg orally every 3 days (12 times), magnolol 10 mg/kg i.p. every 3 days, vs CIS+PBS) | changes in weight on the last and first days (B of FIG. 2) ([4]; M.C orally or magnolol 10 mg/kg i.p. vs cisplatin group) | number of cells expressing both CD68 and IGF-1 [5]
1 | N.N.[Cl][Pt][Cl] [cisplatin] | significantly reduced tumor growth | – | – | – | – | – | –
2 | C=CCc1ccc(O)c(-c2cc(CC=C)ccc2O)c1 [magnolol] | – | significantly increased | significantly alleviated | significantly alleviated | significantly alleviated | significant reduction in weight loss | increased

Reference: US20250302903A1, “COMPOSITION FOR PREVENTION AND TREATMENT OF MUSCLE DISEASE, CONTAINING MAGNOLIA OFFICINALIS EXTRACT AS ACTIVE INGREDIENT” (TWINPIGBIOLAB INC., priority 2022, published 2025)
